The text below walks through data of article PMC4708017, “Antiplasmodial activity of iron(II) and ruthenium(II) organometallic complexes against Plasmodium falciparum blood parasites” (Memórias do Instituto Oswaldo Cruz, 2015).

Where two headings read alike, the source gives them in different places.

Series [1] relates to HepG2 human hepatoma cells. How it is done:
The SI was calculated in order to give an insight into the therapeutic index of the molecules, i.e., how far the toxic concentration is from the therapeutic one.

Series [2] is described as follows: octanol/water partition coefficient (log P o/w) by HPLC. In kind it is physicochemical. The settings on record: determined for the first time in this paper. An excerpt:
Measurement of lipophilicity data - Measurements of the octanol/water partition coefficient (log P o/w) were made by the HPLC technique according to a method described previously ([Minick et al. 1988], [Pomper et al. 1990]). Measurement of the chromatographic capacity factors (k) for each molecule was done at various concentrations in the range of 95-75% methanol containing 0.25% (v/v) 1-octanol, and an aqueous phase consisting of 0.15% (v/v) n-decylamine in the buffering agent 3-morpholinopropane-1-sulfonic acid (MOPS) prepared in 1-octanol saturated water adjusted to pH 7.4. These capacity factors (k’) are extrapolated to 100% of the aqueous component given the value of k’. The logP o/w is obtained by the formula logP o/w = 0.13418 + 0.98452 logk’.

For series [3], the system named is Plasmodium falciparum blood forms (W2 clone, chloroquine-resistant). Nature of the series: in vitro antiplasmodial activity, anti-histidine-rich protein II assay. The class given is cell-based. As to the method: Continuous culture of P. falciparum and in vitro tests of drug activity - Blood-stage P. falciparum parasites, W2 clone CQ-resistant ([Oduola et al. 1988]), maintained according to [Trager & Jensen (1976)], were used in the drug activity tests after sorbitol-synchronisation ([Lambros & Vanderberg 1979)]. The antiplasmodial activity of the compounds was determined relative to control parasites kept in culture medium only ([Rieckmann et al. 1978)] through the anti-histidine-rich protein II assay ([Noedl et al. 2002)]. The IC50 of parasite growth was determined through sigmoidal dose-response curves built by curve-fitting software (Microcal Origin Software v.5.0). […]

Setting [4] is: P. falciparum W2 clone, CQ-resistant, blood-stage, anti-HRPII assay, read-out: IC50 Pf.

In general, log P refers to the decadic logarithm of the partition coefficient of the neutral form, usually between octanol and water. Broadly, the IC50 is the midpoint of a concentration-inhibition curve. As for “1-[(4-(3-dimethylaminopropoxy)phenyl-phenyl)methylidene][3]ferrocenophane [Compound 8]”, in series [1], the “cytotoxicity class (by MLD50)” value was “toxic (those having MLD50< 100 mM were considered toxic)”. In addition, the “log P” value in series [2] stood at 3.46. In addition, the IC50 in series [3] (setting [4]) was found to be 5.9 ± 1.6 µM.
As to `CCN(CC)CCCC(C)Nc1ccnc2cc(Cl)ccc12` (stereo not shown) [CQ, chloroquine, reference compound], the 50% inhibitory concentration (IC50) in series [3] (Plasmodium falciparum, W2, read-out: IC50 Pf) stood at 0.1 ± 0.02 µM.
On to `CCC(=C(c1ccccc1)c1ccccc1)c1ccccc1` [Compound 1], for which the antiplasmodial activity class result in series [3] (P. falciparum W2, class based on IC50) is “inactive”. Further, the IC50 is 83 ± 5 µM in series [3] (setting [4]) and over 60 µM in series [3] (Plasmodium falciparum, W2, P. falciparum W2 clone, CQ-resistant, blood-stage, anti-HRPII assay, read-out: IC50 Pf).
